Measurements published in patent US12403184B2, “Compositions and methods for treating neurodegenerative disroders” (priority 2018, dated 2025).
Where no end group is shown, it is not given here.

Experiments:
ATAD3A = biological target: T1, ATAD3A (Homo sapiens, UniProt Q9NVI7, K135E); assay: ATAD3A dimerization by western blot, HEK293 cells; type: cell-based
T1 construct: expressed in transfected cells; host or cells: HEK293 cells
T1 sequence (Q9NVI7 51-586 K135E limits assumed): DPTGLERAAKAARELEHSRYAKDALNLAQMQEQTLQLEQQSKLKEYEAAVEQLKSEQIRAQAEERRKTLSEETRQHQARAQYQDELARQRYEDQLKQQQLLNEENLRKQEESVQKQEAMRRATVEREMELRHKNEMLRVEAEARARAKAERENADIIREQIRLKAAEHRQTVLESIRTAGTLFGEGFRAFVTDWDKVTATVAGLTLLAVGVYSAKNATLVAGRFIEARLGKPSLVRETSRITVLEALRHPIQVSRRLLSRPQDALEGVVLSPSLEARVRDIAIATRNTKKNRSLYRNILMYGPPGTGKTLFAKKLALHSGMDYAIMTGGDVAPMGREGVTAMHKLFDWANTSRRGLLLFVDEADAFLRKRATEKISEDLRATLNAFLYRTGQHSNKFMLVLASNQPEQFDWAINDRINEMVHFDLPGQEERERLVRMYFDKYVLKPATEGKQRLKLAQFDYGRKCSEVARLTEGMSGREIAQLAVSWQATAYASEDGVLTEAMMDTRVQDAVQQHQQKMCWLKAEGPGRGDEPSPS
Excerpt: Human ATAD3A was amplified from HEK293T cDNA samples through standard PCR methods, and then cloned into pCMV-Myc, pcDNA3.1 (+)-Flag, pEGFP-N1 vectors. ATAD3A truncated mutants were constructed using overlap cloning techniques. ATAD3A point mutant K358E, and K135 mutants (K135E, K135R, K135Q, and K135A) and S2S48 mutants were constructed by using QuickChange II Site-Directed Mutagenesis Kit (Agilent Technologies). Drp1 truncated mutants were described in our previous study. Cells were transfected with plasmids using TransIT®-2020 transfection reagent (Minis Bio LLC, Madison, WI) according to manufacturer's instruction.
To analyze dimerization of ATAD3A under non-reducing conditions, the cells or tissues were harvested and lysed with total lysates buffer. An equal amount of proteins was subject to 8% SDS-PAGE analysis in the presence or absence of β-mercaptoethanol (β-ME). For in vitro BMH crosslinking, the cell lysates were incubated with 1 mM BMH at r.t. for up to 25 min and quenched with 0.1% β-ME, followed by SDS-PAGE analysis. For in-vivo crosslinking, the cells were treated with cell-permeable crosslinker BMH (1 mM) for 20 min at 37° C. After crosslinking, the cells were quenched in PBS with 0.1% β-ME. For DSP crosslinking, the cells were treated with cell-permeable crosslinker for 5 min at 37° C., followed by quenching and washing with 10 mM Glycine in PBS. For formaldehyde (FA) crosslinking, the cells were incubated with PBS buffer containing 1% FA for 20 min at r.t., and the crosslinking reaction was terminated by washing in PBS containing 100 mM glycine. The cells were then lysed and subject to 8% SDS-PAGE analysis. For DTSSP crosslinking of proteins in mitochondrial fractions, isolated mitochondria samples were suspended in the mitochondrial lysis buffer (250 mM sucrose, 20 mM HEPES-NaOH, pH 7.5, 10 mM KCl, 1.5 mM MgCl2, 1 mM EDTA, 1 mM EGTA and protease inhibitor). An equal amount of crude mitochondria was incubated at 30° C. in the presence of 0.5 mM DTSSP. The cross-linking was terminated by the addition of SDS loading buffer. […]

YAC128 mice = assay: Locomotion activity in YAC128 mice; type: in vivo, mouse; settings: 1 mg/kg/day from 3 to 12 months, effect from 6 until 12 months of age
Excerpt: YAC128 [FVB-Tg(YAC128)53Hay/J, JAX stock number: 004938] breeders (FVB/N genetic background) were purchased from Jackson Laboratories. The YAC128 mice contain a full-length human huntingtin gene modified with a 128 CAG repeat expansion in exon 1. The mice were mated, bred, and genotyped in the animal facility of Case Western Reserve University. Male mice at the ages of 2, 3, 6, 9, and 12 months were used in the study.
Systemic peptide treatment in HD mice. All randomization and peptide treatments were prepared by an experimenter not associated with behavioral and neuropathology analysis. Male R6/2 mice (Tg) and their age-matched wild-type littermates (Wt) (6-week-old) were implanted with a 28-day osmotic pump (Alzet, Cupertino CA, Model 2004) containing TAT control peptide or DA1 peptide, which delivered peptides at a rate of 1 mg/kg/day. Male YAC128 mice (Tg) and their age-matched wild-type littermates (WT) were treated with TAT control peptide or DA1 peptide (1 mg/kg/day) by Alzet osmotic pump starting from the age of 3 months. The pump was replaced once every month.
Gross locomotor activity was assessed in R6/2 mice and age-matched wild-type littermates at the ages of 12 weeks, and in YAC128 mice and age-matched wildtype littermates at the ages of 2, 3, 6, 9, and 12 months. […] Distance moved, horizontal and vertical activities were recorded. […]

Substance: YGRKKRRQRRRGGEDKRKT-NH2 [DA1, YGRKKRRQRRR-GG-EDKRKT-NH2]
- dimerization of ATAD3A (ATAD3A; HEK293 cells expressing ATAD3A acetyl-deficient mutant K135E): abolished
- dimerization of ATAD3A (ATAD3A; HEK293 cells expressing ATAD3A ΔN50 mutant, 1 μM for 48 h): abolished
- dimerization of ATAD3A (ATAD3A; normal cells or cells expressing ATAD3A wildtype): minor effect
- general movement activity (YAC128 mice): improved
